Reference: ChEMBL document CHEMBL1125627 (J Med Chem, 1991)

What was measured:
[1] = Percentage ionization was measured; format: ADME
[2] = Serum protein binding ability was measured; format: ADME
[3] = physchem

Ionization [1] [%]	Binding [2] [%]	pKa [3]	SMILES
> 96	80	8.8	CC[C@H]1OC(=O)[C@H](C)[C@@H](O[C@H]2C[C@@](C)(OC)[C@@H](O)[C@H](C)O2)[C@H](C)[C@@H](O[C@@H]2O[C@H](C)C[C@H](N(C)C)[C@H]2O)[C@](C)(O)C[C@@H](C)C(=O)[C@H](C)[C@@H](O)[C@]1(C)O [ERYTHROMYCIN]
> 96	95	9.2	CC[C@H]1OC(=O)[C@H](C)[C@@H](O[C@H]2C[C@@](C)(OC)[C@@H](O)[C@H](C)O2)[C@H](C)[C@@H](O[C@@H]2O[C@H](C)C[C@H](N(C)C)[C@H]2O)[C@](C)(O)C[C@@H](C)/C(=N\OCOCCOC)[C@H](C)[C@@H](O)[C@]1(C)O [ROXITHROMYCIN]
